Measurements from ChEMBL document CHEMBL4219257, “Novel 8-hydroxyquinoline derivatives targeting β-amyloid aggregation, metal chelation and oxidative stress against Alzheimer's disease” (Bioorg Med Chem, 2018).
Activity calls are given as the source filed them. No cut-off for these calls is given here.

Experiments:
[1] = target: T1, Amyloid-beta precursor protein (Homo sapiens, UniProt P05067); assay: Inhibition of HFIP-pretreated amyloid beta (1 to 42) (unknown origin) self-induced aggregation after 48 hrs by thioflavin T-based fluorometric assay
T1 sequence (P05067 whole entry): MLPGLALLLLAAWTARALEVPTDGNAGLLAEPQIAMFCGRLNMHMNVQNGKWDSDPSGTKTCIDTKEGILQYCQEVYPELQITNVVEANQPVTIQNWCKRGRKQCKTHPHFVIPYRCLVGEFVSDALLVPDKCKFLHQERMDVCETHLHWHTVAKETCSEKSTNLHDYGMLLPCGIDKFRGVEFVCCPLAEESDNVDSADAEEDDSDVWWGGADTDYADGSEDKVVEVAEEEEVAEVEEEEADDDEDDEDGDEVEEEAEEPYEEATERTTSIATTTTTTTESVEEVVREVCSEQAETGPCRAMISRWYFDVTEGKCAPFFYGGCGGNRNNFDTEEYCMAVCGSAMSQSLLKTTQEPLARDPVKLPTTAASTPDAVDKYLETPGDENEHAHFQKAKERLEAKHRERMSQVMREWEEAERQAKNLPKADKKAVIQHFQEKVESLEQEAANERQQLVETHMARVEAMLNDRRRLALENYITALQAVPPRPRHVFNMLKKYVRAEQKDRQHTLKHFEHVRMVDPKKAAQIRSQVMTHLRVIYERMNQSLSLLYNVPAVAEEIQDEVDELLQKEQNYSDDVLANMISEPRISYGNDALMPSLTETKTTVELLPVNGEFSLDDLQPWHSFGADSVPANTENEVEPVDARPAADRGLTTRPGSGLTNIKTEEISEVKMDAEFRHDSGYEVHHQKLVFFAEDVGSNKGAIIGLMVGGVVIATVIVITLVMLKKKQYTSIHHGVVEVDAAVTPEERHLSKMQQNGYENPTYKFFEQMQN

[2] = target: T1, Amyloid-beta precursor protein; assay: Inhibition of HFIP-pretreated amyloid beta (1 to 42) (unknown origin) self-induced aggregation at 10 uM after 48 hrs by thioflavin T-based fluorometric assay relative to control
[3] = Antioxidant activity assessed as trolox equivalents of AAPH radical scavenging activity at 10 uM preincubated for 15 mins followed by AAPH addition measured every minute for 120 mins by ORAC-FL assay; assay type: functional
in vitro = conditions: PAMPA
Description: Permeability of the compound at 100 ug/ml after 10 hrs by PAMPA

PC-12 = assay: Cytoprotection against H2O2-induced oxidative stress in rat PC12 cells assessed as increase in cell viability up to 10 uM after 24 hrs by MTT assay; assay type: functional, cell-based
[4] = Inhibition of Zn2+ - induced amyloid beta (1 to 42) (unknown origin) aggregation at 50 uM after 24 hrs by thioflavin T-based fluorometric assay relative to control
[5] = Inhibition of Cu2+ - induced amyloid beta (1 to 42) (unknown origin) aggregation at 50 uM after 24 hrs by thioflavin T-based fluorometric assay relative to control

Row | IC50 [1] [µM] | inhibition [2] [%] | Papp at 10 h, 100 ug/ml (in vitro) [×10⁻⁶ cm/s] | inhibition [4] [%] | inhibition [5] [%] | SMILES | Activity [3] [equiv] | Activity (PC-12)
1 | 18.3 | 34.3 |  |  |  | COc1ccc(CCC(=O)N2CCN(Cc3ccc(O)c4ncccc34)CC2)cc1 | 2.89 | 
2 |  | 15.6 |  |  |  | O=C(CCc1ccc(Cl)cc1)N1CCN(Cc2ccc(O)c3ncccc23)CC1 | 2.57 | 
3 |  | 12.3 |  |  |  | COc1ccc(/C=C/C(=O)N2CCN(Cc3ccc(O)c4ncccc34)CC2)cc1 | 1.25 | 
4 | 20.6 | 32.5 |  |  |  | O=C(CCc1ccc(F)cc1)N1CCN(Cc2ccc(O)c3ncccc23)CC1 | 2.32 | 
5 |  |  | 9.17 |  |  | C[C@]12CC[C@@H]3c4ccc(O)cc4CC[C@H]3[C@@H]1CC[C@@H]2O [ESTRADIOL] |  | 
6 |  | 8.65 |  |  |  | O=C(/C=C/c1ccc(Br)cc1)N1CCN(Cc2ccc(O)c3ncccc23)CC1 | 0.93 | 
7 |  |  |  |  |  | O=C(O)CCc1ccccc1 | 0.86 | 
8 | 7.35 | 61.9 | 6.83 |  |  | O=C(/C=C/c1ccccc1Cl)N1CCN(Cc2ccc(O)c3ncccc23)CC1 | 0.71 | 
9 | 11.4 | 49.9 |  |  |  | O=C(/C=C/c1ccc(F)cc1)N1CCN(Cc2ccc(O)c3ncccc23)CC1 | 1.45 | 
10 |  |  |  |  |  | Cc1c(C)c2c(c(C)c1O)CCC(C)(C(=O)O)O2 (stereo unspecified) |  | Active
11 | 8.86 | 55 |  | 66.5 | 69.8 | O=C(/C=C/c1ccccc1)N1CCN(Cc2ccc(O)c3ncccc23)CC1 | 1.65 | 
12 | 18.9 | 29.4 | 8.82 |  |  | COc1ccc(/C=C/C(=O)N2CCN(Cc3ccc(O)c4ncccc34)CC2)cc1OC | 1.08 | 
